We go through 9 molecules from ChEMBL document CHEMBL2073863, “Cloning and characterization of two human polyspecific organic cation transporters” (DNA Cell Biol, 1997).

Where “and” joins values, the source holds several entries; their conditions need not be identical. Identical values can stand only once.

Series [1] concerns the target T1, Solute carrier family 22 member 2 (Homo sapiens, UniProt O15244).
T1 sequence (O15244 whole entry): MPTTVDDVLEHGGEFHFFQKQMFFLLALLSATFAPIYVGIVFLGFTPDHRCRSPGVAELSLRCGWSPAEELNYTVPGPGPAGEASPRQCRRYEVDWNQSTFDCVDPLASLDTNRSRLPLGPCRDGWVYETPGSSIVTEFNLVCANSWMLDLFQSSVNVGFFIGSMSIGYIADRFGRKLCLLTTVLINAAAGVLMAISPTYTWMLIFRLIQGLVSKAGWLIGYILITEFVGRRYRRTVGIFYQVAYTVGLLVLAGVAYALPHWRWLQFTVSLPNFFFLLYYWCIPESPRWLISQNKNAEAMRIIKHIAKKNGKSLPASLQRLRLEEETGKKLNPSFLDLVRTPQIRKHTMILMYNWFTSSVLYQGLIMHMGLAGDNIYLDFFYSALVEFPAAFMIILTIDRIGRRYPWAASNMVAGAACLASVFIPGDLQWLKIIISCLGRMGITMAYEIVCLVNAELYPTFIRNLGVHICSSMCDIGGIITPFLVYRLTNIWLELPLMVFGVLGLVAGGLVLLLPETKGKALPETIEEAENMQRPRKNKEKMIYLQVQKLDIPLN
Kind of series: TP_TRANSPORTER: inhibition of TEA uptake in Xenopus laevis oocytes. It counts as functional, cell-based, Oocyte.

Series [2] concerns the target T2, Solute carrier family 22 member 1 (Homo sapiens, UniProt O15245).
T2 sequence (O15245 whole entry): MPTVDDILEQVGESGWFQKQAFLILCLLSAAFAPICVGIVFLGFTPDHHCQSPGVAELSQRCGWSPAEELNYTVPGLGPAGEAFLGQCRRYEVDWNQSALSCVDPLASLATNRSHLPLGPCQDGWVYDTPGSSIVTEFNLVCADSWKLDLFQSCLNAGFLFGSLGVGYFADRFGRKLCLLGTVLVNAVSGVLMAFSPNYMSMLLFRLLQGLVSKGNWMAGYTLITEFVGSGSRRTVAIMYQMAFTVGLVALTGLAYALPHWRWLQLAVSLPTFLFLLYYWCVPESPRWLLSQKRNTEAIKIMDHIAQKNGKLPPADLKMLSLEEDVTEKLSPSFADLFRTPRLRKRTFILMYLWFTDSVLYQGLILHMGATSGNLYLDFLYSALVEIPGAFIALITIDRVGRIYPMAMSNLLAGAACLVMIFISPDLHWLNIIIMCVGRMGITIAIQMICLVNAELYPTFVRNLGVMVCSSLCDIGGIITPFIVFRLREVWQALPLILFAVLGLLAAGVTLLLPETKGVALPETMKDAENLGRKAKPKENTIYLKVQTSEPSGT
The series is described as follows: (§1) TP_TRANSPORTER: uptake in Xenopus laevis oocytes. It counts as functional, cell-based. The note with it: oocyte.

Substrate in series [3]: C=C[C@H]1C[N@@]2CC[C@H]1C[C@H]2[C@H](O)c1ccnc2ccc(OC)cc12
Kind of series: TP_TRANSPORTER: uptake (electrogenesis) in Xenopus laevis oocytes. It counts as functional, cell-based, Oocyte.

Substrate in series [4]: CNC(=O)c1cccnc1
Described as §1. It counts as functional, cell-based, Oocyte.

Substrate in series [5]: CC[N+](CC)(CC)CC
The series is described as follows: cells, lysate or membranes named.

Substrate in series [6]: C[N+](C)(C)CCO
The series is described as follows: cells, lysate or membranes named.

Usually Ki stands for the equilibrium dissociation constant of an inhibitor or competing ligand from its target. Low values mean a stronger hold on the target, high ones a looser hold on the target. `CCN1/C(=C/c2ccc3ccccc3[n+]2CC)C=Cc2ccccc21` had a Ki in series [1] of 100 nM.
`C[n+]1ccc(-c2ccccc2)cc1` displayed an inhibition constant Ki in series [1] of 2400 nM. The Activity entry in series [2] was “substrate [not saturable]”.
`CC[n+]1c(CC2C=C(C)N=C(c3ccccc3)N2C)ccc2ccccc21` (centres undefined) [Cyanine-863]: in series [1], the Ki came to 210 nM.
Regarding `CC(C)C(c1ccccc1)C(O)CC[N+]1(C)CCCCC1` (centres undefined) [MEPIPERPHENIDOL BROMIDE], in series [1], the affinity corresponds to a Ki of 4800 nM.
Same read-out and setting: as for `COc1cc(C(O)CNC(C)C)ccc1O` (centres undefined) [METIPRENALINE], the figure is 570000 nM.
In the case of `CNC(=O)c1cccnc1` [NICOTINYL METHYLAMIDE], in series [1], the affinity, expressed as Ki, was 266000 nM. Moreover, in series [2], the Activity entry is “substrate [not saturable]”.
For `CCCCC[N+](CCCCC)(CCCCC)CCCCC` [TETRAPENTYLAMMONIUM], in series [1], the Ki worked out at 1500 nM.
Turning to `CC[N+](CC)(CC)CC` [TETRYLAMMONIUM], the Activity entry in series [2] was “substrate [not saturable]”.

B1: Solute carrier family 22 member 2 (Homo sapiens) (protein)
chain: MPTTVDDVLEHGGEFHFFQKQMFFLLALLSATFAPIYVGIVFLGFTPDHRCRSPGVAELSLRCGWSPAEELNYTVPGPGPAGEASPRQCRRYEVDWNQSTFDCVDPLASLDTNRSRLPLGPCRDGWVYETPGSSIVTEFNLVCANSWMLDLFQSSVNVGFFIGSMSIGYIADRFGRKLCLLTTVLINAAAGVLMAISPTYTWMLIFRLIQGLVSKAGWLIGYILITEFVGRRYRRTVGIFYQVAYTVGLLVLAGVAYALPHWRWLQFTVSLPNFFFLLYYWCIPESPRWLISQNKNAEAMRIIKHIAKKNGKSLPASLQRLRLEEETGKKLNPSFLDLVRTPQIRKHTMILMYNWFTSSVLYQGLIMHMGLAGDNIYLDFFYSALVEFPAAFMIILTIDRIGRRYPWAASNMVAGAACLASVFIPGDLQWLKIIISCLGRMGITMAYEIVCLVNAELYPTFIRNLGVHICSSMCDIGGIITPFLVYRLTNIWLELPLMVFGVLGLVAGGLVLLLPETKGKALPETIEEAENMQRPRKNKEKMIYLQVQKLDIPLN
For orientation: Km means the substrate concentration at which the rate is half of its maximum. For the molecule B1, the Michaelis-Menten constant (Km) in series [3] is 2.6 µM; in series [4], 300 µM; in series [5], 31 µM and 76 µM; in series [6] it was 190 µM and 210 µM.
